Measurements as given in patent US20090163586A1, “Bis-(Sulfonylamino) Derivatives in Therapy 205” (AstraZeneca AB, priority 2007, published 2009).

Target: T1, human mPGES-1 (Homo sapiens, UniProt O14684)
T1 sequence (O14684 1-152): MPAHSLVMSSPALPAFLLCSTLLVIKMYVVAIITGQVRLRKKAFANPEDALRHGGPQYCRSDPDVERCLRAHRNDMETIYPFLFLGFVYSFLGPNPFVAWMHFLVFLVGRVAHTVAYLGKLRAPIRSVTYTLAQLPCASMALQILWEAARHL
Experiment: Microsomal prostaglandin E synthase biochemical assay
Details: microsome preparation containing human mPGES-1; PGH2 10.8 μM, GSH 2.5 mM, pH 6.8; PGE2 by HTRF; average of at least n=2
Method in brief: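 Human mPGES-1 microsomes at 2 μg/mL were pre-incubated 15 min with compound (60 μM to 0.002 μM) in 50 mM potassium phosphate pH 6.8 with 2.5 mM GSH. The reaction was started with 10.8 μM PGH2 and stopped after 1 minute with acidic ferric chloride/citrate. PGE2 was quantified by HTRF; IC50 is the mean of at least 2 runs.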

Row | IC50 | Compound
1 | 1100 nM | NS(=O)(=O)c1cc(O)ccc1NS(=O)(=O)c1cccc(Cl)c1Cl [Example 157, 2-(2,3-Dichloro-benzenesulfonylamino)-5-hydroxy-benzenesulfonamide]
2 | 8700 nM | C[C@@](O)(C(=O)Nc1ccc(S(=O)(=O)Nc2ccccc2S(N)(=O)=O)cc1Cl)C(F)(F)F [Example 158, (2R)—N-[2-Chloro-4-[(2-sulfamoylphenyl)sulfamoyl]phenyl]-3,3,3-trifluoro-2-hydroxy-2-methyl-propanamide]
3 | 3500 nM | NS(=O)(=O)c1ccccc1NS(=O)(=O)c1ccc(Cl)s1 [Example 159, 5-Chloro-N-(2-sulfamoylphenyl)thiophene-2-sulfonamide]
4 | 1200 nM | NS(=O)(=O)c1ccccc1NS(=O)(=O)c1cc(Cl)c(Cl)s1 [Example 160, 4,5-Dichloro-N-(2-sulfamoylphenyl)thiophene-2-sulfonamide]
5 | 1300 nM | NS(=O)(=O)c1ccccc1NS(=O)(=O)c1ccc(Cl)c(Cl)c1 [Example 161, 3,4-Dichloro-N-(2-sulfamoylphenyl)benzenesulfonamide]
6 | 5700 nM | COc1cccc(-c2cccc(S(=O)(=O)Nc3ccccc3S(N)(=O)=O)c2)n1 [Example 162, 3-(6-Methoxypyridin-2-yl)-N-(2-sulfamoylphenyl)benzenesulfonamide]
7 | 460 nM | NS(=O)(=O)c1ccccc1NS(=O)(=O)c1ccc(OCc2cnc(Cl)s2)cc1 [Example 163, 2-[[4-[(2-Chlorol,3-thiazol-5-yl)methoxy]phenyl]sulfonylamino]benzenesulfonamide]
8 | 190 nM | COc1ncc(-c2cccc(S(=O)(=O)Nc3ccccc3S(N)(=O)=O)c2)cc1F [Example 164, 3-(5-Fluoro-6-methoxy-pyridin-3-yl)-N-(2-sulfamoylphenyl)benzenesulfonamide]
9 | 2300 nM | COc1ncc(-c2cccc(S(=O)(=O)Nc3ccccc3S(N)(=O)=O)c2)cn1 [Example 165, 3-(2-Methoxypyrimidin-5-yl)-N-(2-sulfamoylphenyl)benzenesulfonamide]
10 | 4800 nM | Cc1ccncc1-c1cccc(S(=O)(=O)Nc2ccccc2S(N)(=O)=O)c1 [Example 166, 3-(4-Methylpyridin-3-yl)-N-(2-sulfamoylphenyl)benzenesulfonamide]
11 | 3800 nM | COc1ncccc1-c1cccc(S(=O)(=O)Nc2ccccc2S(N)(=O)=O)c1 [Example 167, 3-(2-Methoxypyridin-3-yl)-N-(2-sulfamoylphenyl)benzenesulfonamide]
12 | 630 nM | NS(=O)(=O)c1ccccc1NS(=O)(=O)c1cccc(-c2cncc(Cl)c2)c1 [Example 168, 2-[[3-(5-Chloropyridin-3-yl)phenyl]sulfonylamino]benzenesulfonamide]
13 | 22 nM | COc1ncc(-c2cccc(S(=O)(=O)Nc3ccccc3S(N)(=O)=O)c2)cc1Cl [Example 169, 3-(5-Chloro-6-methoxy-pyridin-3-yl)-N-(2-sulfamoylphenyl)benzenesulfonamide]
14 | 290 nM | CN(C)c1ccc(-c2cccc(S(=O)(=O)Nc3ccccc3S(N)(=O)=O)c2)cn1 [Example 170, 3-(6-Dimethylaminopyridin-3-yl)-N-(2-sulfamoylphenyl)benzenesulfonamide]
15 | 1700 nM | NS(=O)(=O)c1ccccc1NS(=O)(=O)c1cccc(-c2cccc(CO)c2)c1 [Example 171, 2-[[3-[3-(Hydroxymethyl)phenyl]phenyl]sulfonylamino]benzenesulfonamide]
16 | 7300 nM | NS(=O)(=O)c1ccccc1NS(=O)(=O)c1cccc(-c2ccc(CO)cc2)c1 [Example 172, 2-[[3-[4-(Hydroxymethyl)phenyl]phenyl]sulfonylamino]benzenesulfonamide]
17 | 1500 nM | NS(=O)(=O)c1ccccc1NS(=O)(=O)c1ccc(-c2ccc(Cl)c(Cl)c2)cc1 [Example 173, 2-[[4-(3,4-Dichlorophenyl)phenyl]sulfonylamino]benzenesulfonamide]
18 | 220 nM | NS(=O)(=O)c1ccccc1NS(=O)(=O)c1cccc(-c2ccc(Cl)c(Cl)c2)c1 [Example 174, 2-[[3-(3,4-Dichlorophenyl)phenyl]sulfonylamino]benzenesulfonamide]
19 | 3700 nM | NS(=O)(=O)c1ccccc1NS(=O)(=O)c1ccc(Oc2ccc(Cl)cc2)cc1 [Example 175, 2-[[4-(4-Chlorophenoxy)phenyl]sulfonylamino]benzenesulfonamide]
20 | 900 nM | Cc1cc(NC(=O)Nc2ccc(Cl)cc2)ccc1S(=O)(=O)Nc1ccccc1S(N)(=O)=O [Example 176, 3-(4-Chlorophenyl)-1-[3-methyl-4-[(2-sulfamoylphenyl)sulfamoyl]phenyl]urea]
21 | 2200 nM | CNS(=O)(=O)c1ccc2c(c1)-c1cc(S(=O)(=O)Nc3ccccc3S(N)(=O)=O)ccc1S2(=O)=O [Example 177, N-Methyl-N′-(2-sulfamoylphenyl)dibenzo[b,d]thiophene-2,8-disulfonamide 5,5-dioxide]

Row | IC50 | Compound
22 | 2700 nM | NS(=O)(=O)c1cc(F)c(F)cc1NS(=O)(=O)c1cccc(Cl)c1Cl [Example 178, 2,3-Dichloro-N-(4,5-difluoro-2-sulfamoylphenyl)benzenesulfonamide]
23 | 1400 nM | N#Cc1ccc(S(N)(=O)=O)c(NS(=O)(=O)CCc2ccc(Cl)c(Cl)c2)c1 [Example 180, 4-Cyano-2-(2-(3,4-dichlorophenyl)ethylsulfonamido)benzenesulfonamide]
24 | 370 nM | COc1cc(Cl)ccc1CCS(=O)(=O)Nc1cc(C#N)ccc1S(N)(=O)=O [Example 181, 2-(2-(4-Chloro-2-methoxyphenyl)ethylsulfonamido)-4-cyanobenzenesulfonamide]
25 | 520 nM | COc1cc(Cl)ccc1CCS(=O)(=O)Nc1ccc(C#N)cc1S(N)(=O)=O [Example 182, 2-(2-(4-Chloro-2-methoxyphenyl)ethylsulfonamido)-5-cyanobenzenesulfonamide]
26 | 81 nM | CC(C)(C)C#Cc1ccc(CCS(=O)(=O)Nc2ccccc2S(N)(=O)=O)cc1 [Example 183, 2-(2-(4-(3,3-dimethylbut-1-ynyl)phenyl)ethylsulfonamido)benzenesulfonamide]
27 | 9600 nM | CC(C)(O)C#Cc1ccc(CCS(=O)(=O)Nc2ccccc2S(N)(=O)=O)cc1 [Example 184, 2-(2-(4-(3-Hydroxy-3-methylbut-1-ynyl)phenyl)ethylsulfonamido)benzenesulfonamide]
28 | 2500 nM | CC(C)(C)C#Cc1cccc(S(=O)(=O)Nc2ccccc2S(N)(=O)=O)c1 [Example 185, 3-(3,3-Dimethylbut-1-ynyl)-N-(2-sulfamoylphenyl)benzenesulfonamide]
29 | 250 nM | COc1cc(Cl)ccc1CCS(=O)(=O)Nc1ccccc1S(N)(=O)=O [Example 186, 2-(2-(4-Chloro-2-methoxyphenyl)ethylsulfonamido)benzenesulfonamide]
30 | 680 nM | CC(C)(C)C#Cc1ccc(CCS(=O)(=O)Nc2ccccc2S(N)(=O)=O)cn1 [Example 187, 2-(2-(6-(3,3-Dimethylbut-1-ynyl)pyridin-3-yl)ethylsulfonamido)benzenesulfonamide]
31 | 270 nM | NS(=O)(=O)c1ccccc1NS(=O)(=O)CCc1ccc(C#CC2CCCCC2)nc1 [Example 188, 2-(2-(6-(cyclohexylethynyl)pyridin-3-yl)ethylsulfonamido)benzenesulfonamide]
32 | 1400 nM | Cc1ccc(NS(=O)(=O)CCc2ccc(Br)cc2)c(S(N)(=O)=O)c1 [Example 189, 2-(2-(4-Bromophenyl)ethylsulfonamido)-5-methylbenzenesulfonamide]
33 | 680 nM | Cc1ccc(NS(=O)(=O)/C=C/c2ccc(Br)cc2)c(S(N)(=O)=O)c1 [Example 190, (E)-2-(2-(4-Bromophenyl)vinylsulfonamido)-5-methylbenzenesulfonamide]
34 | 8300 nM | Cc1nc(-c2cccc(S(=O)(=O)Nc3ccccc3S(N)(=O)=O)c2)cs1 [Example 191, 3-(2-Methylthiazol-4-yl)-N-(2-sulfamoylphenyl)benzenesulfonamide]
35 | 3200 nM | NS(=O)(=O)c1ccccc1NS(=O)(=O)/C=C/c1cccc(C(F)(F)F)c1 [Example 192, (E)-2-(2-(3-(Trifluoromethyl)phenyl)vinylsulfonamido)benzenesulfonamide]
36 | 7900 nM | NS(=O)(=O)c1ccccc1NS(=O)(=O)/C=C/c1ccccc1F [Example 193, (E)-2-(2-(2-Fluorophenyl)vinylsulfonamido)benzenesulfonamide]
37 | 1000 nM | COc1cc(Cl)ccc1CCS(=O)(=O)Nc1ccc(Cl)cc1S(N)(=O)=O [Example 194, 5-Chloro-2-(2-(4-chloro-2-methoxyphenyl)ethylsulfonamido)benzenesulfonamide]
38 | 5500 nM | NS(=O)(=O)c1cc(Cl)ccc1NS(=O)(=O)c1cccc(Cl)c1Cl [Example 195, 2,3-Dichloro-N-(4-chloro-2-sulfamoylphenyl)benzenesulfonamide]
39 | 1900 nM | NS(=O)(=O)c1c(F)cc(F)cc1NS(=O)(=O)c1cccc(Cl)c1Cl [Example 196, 2,3-Dichloro-N-(3,5-difluoro-2-sulfamoylphenyl)benzenesulfonamide]
40 | 640 nM | NS(=O)(=O)c1c(F)cc(F)cc1NS(=O)(=O)CCc1ccc(Cl)c(Cl)c1 [Example 197, 2-(2-(3,4-Dichlorophenyl)ethylsulfonamido)-4,6-difluorobenzenesulfonamide]
41 | 290 nM | COc1cc(Cl)ccc1CCS(=O)(=O)Nc1cc(F)cc(F)c1S(N)(=O)=O [Example 198, 2-(2-(4-Chloro-2-methoxyphenyl)ethylsulfonamido)-4,6-difluorobenzenesulfonamide]
42 | 2500 nM | N#Cc1ccc(NS(=O)(=O)CCc2ccc(Cl)c(Cl)c2)c(S(N)(=O)=O)c1 [Example 199, 5-Cyano-2-(2-(3,4-dichlorophenyl)ethylsulfonamido)benzenesulfonamide]
